Measurements taken from ChEMBL document CHEMBL1152811, “Docking model of drug binding to the human ether-à-go-go potassium channel guided by tandem dimer mutant patch-clamp data: a synergic approach” (J Med Chem, 2009).
pIC50: −log10 of the molar value. Calls of active or inactive are those of the source. The rule behind the calls is not given here.

Tests used:
Type in all cases: cell-based
[1] = Inhibition of human ERG td[wt:F656A] mutant expressed in HEK293 cells by whole cell patch clamp method
[2] = Inhibition of human ERG td[wt:Y652A] mutant expressed in HEK293 cells by whole cell patch clamp method
[3] = molecular target: Voltage-gated inwardly rectifying potassium channel KCNH2 (Homo sapiens, UniProt Q12809); experiment: Inhibition of human ERG expressed in HEK293 cells by whole cell patch clamp method
HEK293 [4] = experiment: Binding affinity to human ERG td[wt:F656A] mutant expressed in HEK293 cells assessed as blockade of membrane current at 0.05 uM by whole cell patch clamp method
HEK293 [5] = experiment: Binding affinity to human ERG td[wt:Y652A] mutant expressed in HEK293 cells assessed as blockade of membrane current at 0.2 uM by whole cell patch clamp method

Voltage-gated inwardly rectifying potassium channel KCNH2, sequence (Q12809 whole entry): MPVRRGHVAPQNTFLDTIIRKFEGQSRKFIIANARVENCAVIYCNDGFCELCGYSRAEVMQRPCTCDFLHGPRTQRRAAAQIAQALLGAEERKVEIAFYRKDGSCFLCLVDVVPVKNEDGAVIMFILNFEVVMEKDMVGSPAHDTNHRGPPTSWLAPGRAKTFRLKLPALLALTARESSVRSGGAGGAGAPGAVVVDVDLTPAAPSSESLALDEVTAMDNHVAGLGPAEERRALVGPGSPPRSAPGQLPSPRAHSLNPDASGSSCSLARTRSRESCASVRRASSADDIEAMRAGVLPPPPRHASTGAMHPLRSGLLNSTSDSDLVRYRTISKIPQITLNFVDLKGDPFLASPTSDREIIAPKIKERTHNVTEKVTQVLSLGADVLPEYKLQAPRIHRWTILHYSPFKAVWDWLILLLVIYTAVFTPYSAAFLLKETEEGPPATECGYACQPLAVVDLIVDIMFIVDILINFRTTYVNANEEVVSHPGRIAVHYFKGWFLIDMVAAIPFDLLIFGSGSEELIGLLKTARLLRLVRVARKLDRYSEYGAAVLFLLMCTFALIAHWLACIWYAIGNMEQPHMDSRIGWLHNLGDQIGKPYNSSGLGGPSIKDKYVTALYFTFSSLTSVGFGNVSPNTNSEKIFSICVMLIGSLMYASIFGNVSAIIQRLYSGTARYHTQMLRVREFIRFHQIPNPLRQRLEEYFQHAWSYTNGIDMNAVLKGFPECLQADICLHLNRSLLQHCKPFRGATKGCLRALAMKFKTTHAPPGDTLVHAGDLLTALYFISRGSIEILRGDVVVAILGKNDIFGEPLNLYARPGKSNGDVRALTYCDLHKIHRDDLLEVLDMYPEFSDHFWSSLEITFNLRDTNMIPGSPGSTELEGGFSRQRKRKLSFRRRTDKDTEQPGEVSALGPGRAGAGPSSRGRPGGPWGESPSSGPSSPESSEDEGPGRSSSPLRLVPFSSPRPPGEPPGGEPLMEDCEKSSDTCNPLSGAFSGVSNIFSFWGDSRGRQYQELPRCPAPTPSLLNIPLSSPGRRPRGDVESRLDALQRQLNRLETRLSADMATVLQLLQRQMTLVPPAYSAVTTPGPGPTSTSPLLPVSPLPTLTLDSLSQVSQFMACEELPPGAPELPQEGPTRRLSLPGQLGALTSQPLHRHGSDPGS

Structure (SMILES)	pIC50 [1]	pIC50 [2]	pIC50 [3]	Activity (HEK293 [4])	Activity (HEK293 [5])
Cc1cccc(CCN2CCC(C(=O)c3ccc(NS(C)(=O)=O)cc3)CC2)n1	7.70	6.60			
CCOc1cc(N)c(Cl)cc1C(=O)NCC1CN(Cc2ccc(F)cc2)CCO1 (centres undefined) [MOSAPRIDE]			5.32		
CC(C)(C)c1ccc(C(O)CCCN2CCC(C(O)(c3ccccc3)c3ccccc3)CC2)cc1 (centres undefined) [TERFENADINE]	7.52	7.52			
COc1cc(N)c(Cl)cc1C(=O)NC1CCN(CCCOc2ccc(F)cc2)CC1OC (centres undefined) [CISAPRIDE]	8.00	6.74		Active	Active
